Measurements taken from patent US20090105225A1, “2-Substituted 4-Benzylphthalazinone Derivatives as Histamine H1 and H3 Antagonists” (GLAXO GROUP LIMITED, priority 2006, published 2009).
Where a name gives a salt, the structure may show the parent alone.

Legend:
[1] = CNS penetration (intravenous bolus or steady-state infusion, brain and blood concentration); type: in vivo, rat; conditions: compared with azelastine
Protocol: Compounds are dosed intravenously at a nominal dose level of 1 mg/kg to male CD Sprague Dawley rats. Compounds are formulated in 5% DMSO/45% PEG200/50% water. Blood samples are taken under terminal anaesthesia with isoflurane at 5 min post-dose and the brains are also removed for assessment of brain penetration. Blood samples are taken directly into heparinised tubes. Blood samples are prepared for analysis using protein precipitation and brain samples are prepared using extraction of drug from brain by homogenisation and subsequent protein precipitation. The concentration of parent drug in blood and brain extracts is determined by quantitative LC-MS/MS analysis using compound-specific mass transitions.
A loading dose of the compounds is given to male CD Sprague Dawley rats at a nominal dose level of 0.4 mg/kg. The compounds are then infused intravenously for 4 h at a nominal dose level of 0.1 mg/kg/h. Compounds are formulated in 2% DMSO/30% PEG200/68% water. Serial or terminal blood samples are taken at 0.5, 1.5, 2.5, 3, 3.5 and 4 h post dose. The final blood sample is collected under terminal anaesthesia with isoflurane and the brains are also removed for assessment of brain penetration. Blood samples are taken directly into heparinised tubes. Blood samples are prepared for analysis using protein precipitation and brain samples are prepared using extraction of drug from brain by homogenisation and subsequent protein precipitation. The concentration of parent drug in blood and brain extracts is determined by quantitative LC-MS/MS analysis using compound-specific mass transitions.

human H1 receptor = target: T1, human H1 receptor (Homo sapiens, UniProt P35367); assay: Histamine H1 functional antagonist assay (FLIPR): determination of antagonist pA2 and duration; type: cell-based; conditions: at one or more time points; compared with azelastine
T1 construct: expressed in transfected cells
T1 sequence (P35367 whole entry): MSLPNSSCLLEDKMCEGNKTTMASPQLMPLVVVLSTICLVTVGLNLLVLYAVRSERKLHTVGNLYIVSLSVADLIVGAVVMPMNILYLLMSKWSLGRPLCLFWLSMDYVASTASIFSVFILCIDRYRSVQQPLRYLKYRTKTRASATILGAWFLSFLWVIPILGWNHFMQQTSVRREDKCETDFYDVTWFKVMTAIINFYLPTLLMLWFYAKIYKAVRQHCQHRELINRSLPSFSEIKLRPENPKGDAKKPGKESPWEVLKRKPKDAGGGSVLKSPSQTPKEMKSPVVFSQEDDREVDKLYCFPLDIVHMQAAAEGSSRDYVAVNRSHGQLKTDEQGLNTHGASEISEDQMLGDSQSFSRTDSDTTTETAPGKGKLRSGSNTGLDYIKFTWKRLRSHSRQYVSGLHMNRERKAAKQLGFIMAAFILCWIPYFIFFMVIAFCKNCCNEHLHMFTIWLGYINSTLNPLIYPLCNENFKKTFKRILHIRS
Protocol: The human H1 receptor is cloned using known procedures described in the literature [Biochem. Biophys. Res. Commun., 201(2):894 (1994)]. Chinese hamster ovary (CHO) cells stably expressing the human H1 receptor are generated according to known procedures described in the literature [Br. J. Pharmacol., 117(6):1071 (1996)].
The histamine H1 receptor expressing CHO cells are seeded into non-coated black-walled clear bottom 96-well tissue culture plates as described above.
Following overnight culture, growth medium is removed from each well, washed with 200 μl phosphate buffered saline (PBS) and is replaced with 50 μl loading dye (250 μM Brilliant Black, 1 μM Fluo-4 diluted in Tyrodes buffer+probenecid (145 mM NaCl, 2.5 mM KCl, 10 mM HEPES, 10 mM D-glucose, 1.2 mM MgCl2, 1.5 mM CaCl2, 2.5 mM probenecid, pH adjusted to 7.40 with NaOH 1.0 M)). Cells are incubated for 45 min at 37° C. The loading buffer is removed and the cells are washed as above, and 90 μl of Tyrodes buffer+probenecid is added to each well. 10 μl of test compound, diluted to the required concentration in Tyrodes buffer+probenecid (or 10 μl Tyrodes buffer+probenecid as a control) is added to each well and the plate is incubated for 30 min at 37° C., 5% CO2.
The plates are then placed into a FLIPR™ (Molecular Devices, UK) to monitor cell fluorescence (λex=488 nm, λEM=540 nm) in the manner described in Sullivan et al., (In: Lambert D G (ed.), Calcium Signaling Protocols, New Jersey: Humana Press, 1999, 125-136) before and after the addition of 50 μl histamine over a concentration range of 1 mM-0.1 nM. The resultant concentration response curves are analysed by non-linear regression using a standard four parameter logistic equation to determine the histamine EC50, the concentration of histamine required to produce a response of 50% of the maximum response to histamine. The antagonist pA2 is calculated using the following standard equation: pA2=log(DR−1)−log [B] where DR=dose ratio, defined as EC50 antagonist-treated/EC50 control and [B]=concentration of antagonist.
To determine the antagonist duration, cells are cultured overnight in non-coated black-walled clear bottom 96-well tissue culture plates, are washed with PBS and are incubated with a concentration of antagonist chosen to give an approximate DR in the range 30-300. Following the 30 min antagonist incubation period, the cells are washed two or three times with 200 μl of PBS and then 100 μl Tyrodes buffer is added to each well to initiate antagonist dissociation. Following incubation for predetermined times, typically 30-270 min at 37° C., the cells are then washed again with 200 μl PBS and are incubated with 100 μl Tyrodes buffer containing Brilliant Black, probenecid and Fluo-4 for 45 min at 37° C., as described above. After this period, the cells are challenged with histamine in the FLIPR™ as described above. The dose ratio at each time point is used to determine the fractional H1 receptor occupancy by the following equation: fractional receptor occupancy=(DR-1)/DR. The decrease in receptor occupancy over time approximates to a straight line and is analysed by linear regression. The slope of this straight line fit is used as an index of the dissociation rate of the antagonist. The dose ratios for antagonist treated cells and for antagonist treated and washed cells at each time point are used to calculate a relative dose ratio (rel DR) which is also used as an index of antagonist duration. Antagonists with long duration of action produce rel DR values close to 1, and antagonists with short duration of action produce rel DR values that approaches the dose ratio value obtained for antagonist treatment alone.

[2] = tested on: histamine-induced congestion; assay: Intranasal histamine challenge, whole body plethysmography; type: in vivo; conditions: 24 hours after dosing; compared to azelastine; Guinea Pig whole body plethysmography model (FIG. 3)
Protocol: Female Dunkin-Hartley guinea pigs 150-250 g are sensitised twice daily for 5 days (week 1) with ovalbumin (OVA) and aluminium hydroxide (Al(OH)3 or Alum) in physiological saline, 25 μl/nostril. Solution is made up at 20 μg/ml OVA, 180 mg/ml Alum. During weeks 2 and 3, animals receive 25 μl/nostril of OVA (5 mg/ml) once daily. During Week 4 guinea pigs will be entered into study but are continually sensitized as per weeks 2 and 3 until the day before dosing with compound or vehicle.
Pretreatment with test compound is performed at various times prior to histamine challenge. Efficacy dose-response curves are determined 1 h after dosing whereas duration of action is studied up to 7 days post dose. Test compounds are formulated as solutions in 0.9% sterile saline or suspensions in 0.9% sterile saline/tween80. […]
After the stipulated pre-dose time has been reached, guinea pigs are re-anaesthetised with isoflurane and dosed with either 15 mM histamine or phosphate-buffered saline (PBS), (25 μl per nostril). […] Data are analysed using ANOVA with post-hoc Fishers LSD test (general linear models, Statistica®) and finally Hochberg adjustment. Inhibition of histamine-induced congestion is determined by statistically significant differences between the mean responses of compound pre-treated groups compared to the vehicle pre-treated, histamine-challenged group.

| Compound | CNS penetration [1] | duration of action in the histamine H1 functional antagonist assay (human H1 receptor) | inhibition of nasal congestion [2] |
| --- | --- | --- | --- |
| COc1ccc(Cc2nn(C[C@H]3CCCN3CCCCc3ccc(OCCCN4CCCCCC4)cc3)c(=O)c3ccccc23)cc1 [Example 7, 2-({(2R)-1-[4-(4-{[3-(Hexahydro-1H-azepin-1-yl)propyl]oxy}phenyl)butyl]-2-pyrrolidinyl}methyl)-4-{[4-(methyloxy)phenyl]methyl}-1(2H)-phthalazinone Diformate] | lower CNS penetration than azelastine | longer duration of action than azelastine |  |
| O=c1c2ccccc2c(Cc2ccc(O)cc2)nn1C[C@H]1CCCN1CCCCc1ccc(OCCCN2CCCCCC2)cc1 [Example 8, 2-({(2R)-1-[4-(4-{[3-(Hexahydro-1H-azepin-1-yl)propyl]oxy}phenyl)butyl]-2-pyrrolidinyl}methyl)-4-[(4-hydroxyphenyl)methyl]-1(2H)-phthalazinone] |  | longer duration of action than azelastine |  |
| O=c1c2ccccc2c(Cc2ccc(F)cc2)nn1C[C@H]1CCCN1CCCCc1ccc(OCCCN2CCCCCC2)cc1 [Example 9, 4-[(4-Fluorophenyl)methyl]-2-({(2R)-1-[4-(4-{[3-(hexahydro-1H-azepin-1-yl)propyl]oxy}phenyl)butyl]-2-pyrrolidinyl}methyl)-1(2H)-phthalazinone] |  | longer duration of action than azelastine |  |
| O=c1c2ccccc2c(Cc2ccc(Cl)cc2)nn1C[C@H]1CCCN1CCCOc1ccc2c(c1)CCN(C1CCC1)CC2 [Example 15, 4-[(4-Chlorophenyl)methyl]-2-[((2R)-1-{3-[(3-cyclobutyl-2,3,4,5-tetrahydro-1H-3-benzazepin-7-yl)oxy]propyl}-2-pyrrolidinyl)methyl]-1(2H)-phthalazinone] |  | longer duration of action than azelastine |  |
| O=c1c2ccccc2c(Cc2ccc(Cl)cc2)nn1C1CCCN(CCCOc2ccc3c(c2)CCN(C2CCC2)CC3)CC1 (centres unmarked) [Example 16, 4-[(4-Chlorophenyl)methyl]-2-(1-{3-[(3-cyclobutyl-2,3,4,5-tetrahydro-1H-3-benzazepin-7-yl)oxy]propyl}hexahydro-1H-azepin-4-yl)-1(2H)-phthalazinone Formate Salt] | comparable CNS penetration to azelastine |  |  |
| O=C(NCCN1CCCC(n2nc(Cc3ccc(Cl)cc3)c3ccccc3c2=O)CC1)c1ccc2c(c1)CCN(C1CCC1)CC2 (centres unmarked) [Example 18, N-(2-{4-[4-[(4-Chlorophenyl)methyl]-1-oxo-2(1H)-phthalazinyl]hexahydro-1H-azepin-1-yl}ethyl)-3-cyclobutyl-2,3,4,5-tetrahydro-1H-3-benzazepine-7-carboxamide Diformate Salt] |  | longer duration of action than azelastine |  |
| O=c1c2ccncc2c(Cc2ccc(Cl)cc2)nn1C[C@H]1CCCN1CCCCc1ccc(OCCCN2CCCCCC2)cc1 [Example 23] |  | longer duration of action than azelastine |  |
| O=c1c2ccccc2c(Cc2ccc(Cl)cc2)nn1C[C@H]1CCCN1CCCCc1ccc(OCCCN2CCCCCC2)cc1 [Example 24, 4-[(4-Chlorophenyl)methyl]-2-({(2R)-1-[4-(4-{[3-(hexahydro-1H-azepin-1-yl)propyl]oxy}phenyl)butyl]-2-pyrrolidinyl}methyl)-1(2H)-phthalazinone Free Base] | lower CNS penetration than azelastine | significantly longer duration of action than azelastine | statistically significant inhibition of nasal congestion |
